Experimental data published in patent US7442541B2, “β-glucan-containing fat and oil composition and novel microorganism capable of producing β-glucan” (Adeka Corporation, priority 2002, dated 2008).

Experiments:
Experiment in all cases: Cycloheximide resistance test
ADK-71 = format: cell-based, Aureobasidium pullulans; conditions: strain ADK-71, YM agar, 26° C., 10 days
Protocol: (§1) The strains obtained by the screening in Test Examples 1 and 2 and IFO-4466, IFO-6353, and IFO-7757 purchased from Institute for Fermentation, Osaka, i.e., were tested for cycloheximide resistance as follows. Each strain was grown on YM agar medium (Difco) at 26° C. for 5 days. YM agar media (Difco) containing 5, 10, 20, 40, and 80 μg/ml of cycloheximide were prepared. The grown strain was inoculated into each of the cycloheximide-containing media using a sterile toothpick and incubated at 26° C. for 10 days. The plates were examined for colonies. The diameters of the colonies, if formed, were measured.

IFO-4466 = format: cell-based, Aureobasidium pullulans; conditions: strain IFO-4466, YM agar, 26° C., 10 days
Protocol: as §1

ADK-34 = format: cell-based, Aureobasidium pullulans; conditions: strain ADK-34, YM agar, 26° C., 10 days
Protocol: as §1

ADK-82 = format: cell-based, Aureobasidium pullulans; conditions: strain ADK-82, YM agar, 26° C., 10 days
Protocol: as §1

ADK-77 = format: cell-based, Aureobasidium pullulans; conditions: strain ADK-77, YM agar, 26° C., 10 days
Protocol: as §1

ADK-27 = format: cell-based; conditions: strain ADK-27, YM agar, 26° C., 10 days
Protocol: as §1

ADK-8 = format: cell-based; conditions: strain ADK-8, YM agar, 26° C., 10 days
Protocol: as §1

ADK-6 = format: cell-based; conditions: strain ADK-6, YM agar, 26° C., 10 days
Protocol: as §1

ADK-17 = format: cell-based; conditions: strain ADK-17, YM agar, 26° C., 10 days
Protocol: as §1

ADK-28 = format: cell-based; conditions: strain ADK-28, YM agar, 26° C., 10 days
Protocol: as §1

ADK-20 = format: cell-based; conditions: strain ADK-20, YM agar, 26° C., 10 days
Protocol: as §1

ADK-31 = format: cell-based; conditions: strain ADK-31, YM agar, 26° C., 10 days
Protocol: as §1

ADK-4 = format: cell-based; conditions: strain ADK-4, YM agar, 26° C., 10 days
Protocol: as §1

ADK-1 = format: cell-based; conditions: strain ADK-1, YM agar, 26° C., 10 days
Protocol: as §1

ADK-10 = format: cell-based; conditions: strain ADK-10, YM agar, 26° C., 10 days
Protocol: as §1

ADK-5 = format: cell-based; conditions: strain ADK-5, YM agar, 26° C., 10 days
Protocol: as §1

ADK-24 = format: cell-based; conditions: strain ADK-24, YM agar, 26° C., 10 days
Protocol: as §1

ADK-42 = format: cell-based; conditions: strain ADK-42, YM agar, 26° C., 10 days
Protocol: as §1

## C[C@@H]1C[C@@H]([C@H](O)CC2CC(=O)NC(=O)C2)C(=O)[C@@H](C)C1 [Cycloheximide, cycloheximide]
ADK-71; cycloheximide 5 μg/ml
  Colony diameter: 7.6 mm
ADK-71; cycloheximide 10 μg/ml
  Colony diameter: 4.1 mm
ADK-71; cycloheximide 20 μg/ml
  Colony diameter: 1.8 mm
ADK-71; cycloheximide 40 μg/ml
  Colony diameter: 1.2 mm
ADK-71; cycloheximide 80 μg/ml
  Colony diameter: 0 mm
IFO-4466; cycloheximide 5 μg/ml
  Colony diameter: 4.4 mm
IFO-4466; cycloheximide 10 μg/ml
  Colony diameter: 0 mm
IFO-4466; cycloheximide 20 μg/ml
  Colony diameter: 0 mm
IFO-4466; cycloheximide 40 μg/ml
  Colony diameter: 0 mm
IFO-4466; cycloheximide 80 μg/ml
  Colony diameter: 0 mm
ADK-34; cycloheximide 5 μg/ml
  Colony diameter: 13.6 mm
ADK-34; cycloheximide 10 μg/ml
  Colony diameter: 6.7 mm
ADK-34; cycloheximide 20 μg/ml
  Colony diameter: 5.1 mm
ADK-34; cycloheximide 40 μg/ml
  Colony diameter: 3.7 mm
ADK-34; cycloheximide 80 μg/ml
  Colony diameter: 0.5 mm
ADK-82; cycloheximide 5 μg/ml
  Colony diameter: 10.4 mm
ADK-82; cycloheximide 10 μg/ml
  Colony diameter: 2.9 mm
ADK-82; cycloheximide 20 μg/ml
  Colony diameter: 1.5 mm
ADK-82; cycloheximide 40 μg/ml
  Colony diameter: 1.2 mm
ADK-82; cycloheximide 80 μg/ml
  Colony diameter: 0 mm
ADK-77; cycloheximide 5 μg/ml
  Colony diameter: 9.5 mm
ADK-77; cycloheximide 10 μg/ml
  Colony diameter: 4.1 mm
ADK-77; cycloheximide 20 μg/ml
  Colony diameter: 0.8 mm
ADK-77; cycloheximide 40 μg/ml
  Colony diameter: 0 mm
ADK-77; cycloheximide 80 μg/ml
  Colony diameter: 0 mm
ADK-27; cycloheximide 5 μg/ml
  Colony diameter: 10.3 mm
ADK-27; cycloheximide 10 μg/ml
  Colony diameter: 0 mm
ADK-27; cycloheximide 20 μg/ml
  Colony diameter: 0 mm
ADK-27; cycloheximide 40 μg/ml
  Colony diameter: 0 mm
ADK-27; cycloheximide 80 μg/ml
  Colony diameter: 0 mm
ADK-8; cycloheximide 5 μg/ml
  Colony diameter: 7.7 mm
ADK-8; cycloheximide 10 μg/ml
  Colony diameter: 1.1 mm
ADK-8; cycloheximide 20 μg/ml
  Colony diameter: 0 mm
ADK-8; cycloheximide 40 μg/ml
  Colony diameter: 0 mm
ADK-8; cycloheximide 80 μg/ml
  Colony diameter: 0 mm
ADK-6; cycloheximide 5 μg/ml
  Colony diameter: 7.1 mm
ADK-6; cycloheximide 10 μg/ml
  Colony diameter: 0 mm
ADK-6; cycloheximide 20 μg/ml
  Colony diameter: 0 mm
ADK-6; cycloheximide 40 μg/ml
  Colony diameter: 0 mm
ADK-6; cycloheximide 80 μg/ml
  Colony diameter: 0 mm
ADK-17; cycloheximide 5 μg/ml
  Colony diameter: 6.7 mm
ADK-17; cycloheximide 10 μg/ml
  Colony diameter: 0 mm
ADK-17; cycloheximide 20 μg/ml
  Colony diameter: 0 mm
ADK-17; cycloheximide 40 μg/ml
  Colony diameter: 0 mm
ADK-17; cycloheximide 80 μg/ml
  Colony diameter: 0 mm
ADK-28; cycloheximide 5 μg/ml
  Colony diameter: 7.1 mm
ADK-28; cycloheximide 10 μg/ml
  Colony diameter: 0 mm
ADK-28; cycloheximide 20 μg/ml
  Colony diameter: 0 mm
ADK-28; cycloheximide 40 μg/ml
  Colony diameter: 0 mm
ADK-28; cycloheximide 80 μg/ml
  Colony diameter: 0 mm
ADK-20; cycloheximide 5 μg/ml
  Colony diameter: 6.2 mm
ADK-20; cycloheximide 10 μg/ml
  Colony diameter: 0 mm
ADK-20; cycloheximide 20 μg/ml
  Colony diameter: 0 mm
ADK-20; cycloheximide 40 μg/ml
  Colony diameter: 0 mm
ADK-20; cycloheximide 80 μg/ml
  Colony diameter: 0 mm
ADK-31; cycloheximide 5 μg/ml
  Colony diameter: 6.3 mm
ADK-31; cycloheximide 10 μg/ml
  Colony diameter: 1.7 mm
ADK-31; cycloheximide 20 μg/ml
  Colony diameter: 0 mm
ADK-31; cycloheximide 40 μg/ml
  Colony diameter: 0 mm
ADK-31; cycloheximide 80 μg/ml
  Colony diameter: 0 mm
ADK-4; cycloheximide 5 μg/ml
  Colony diameter: 8.5 mm
ADK-4; cycloheximide 10 μg/ml
  Colony diameter: 0 mm
ADK-4; cycloheximide 20 μg/ml
  Colony diameter: 0 mm
ADK-4; cycloheximide 40 μg/ml
  Colony diameter: 0 mm
ADK-4; cycloheximide 80 μg/ml
  Colony diameter: 0 mm
ADK-1; cycloheximide 5 μg/ml
  Colony diameter: 0 mm
ADK-1; cycloheximide 10 μg/ml
  Colony diameter: 0 mm
ADK-1; cycloheximide 20 μg/ml
  Colony diameter: 0 mm
ADK-1; cycloheximide 40 μg/ml
  Colony diameter: 0 mm
ADK-1; cycloheximide 80 μg/ml
  Colony diameter: 0 mm
ADK-10; cycloheximide 5 μg/ml
  Colony diameter: 8.5 mm
ADK-10; cycloheximide 10 μg/ml
  Colony diameter: 0 mm
ADK-10; cycloheximide 20 μg/ml
  Colony diameter: 0 mm
ADK-10; cycloheximide 40 μg/ml
  Colony diameter: 0 mm
ADK-10; cycloheximide 80 μg/ml
  Colony diameter: 0 mm
ADK-5; cycloheximide 5 μg/ml
  Colony diameter: 6.3 mm
ADK-5; cycloheximide 10 μg/ml
  Colony diameter: 0 mm
ADK-5; cycloheximide 20 μg/ml
  Colony diameter: 0 mm
ADK-5; cycloheximide 40 μg/ml
  Colony diameter: 0 mm
ADK-5; cycloheximide 80 μg/ml
  Colony diameter: 0 mm
ADK-24; cycloheximide 5 μg/ml
  Colony diameter: 9.1 mm
ADK-24; cycloheximide 10 μg/ml
  Colony diameter: 2.5 mm
ADK-24; cycloheximide 20 μg/ml
  Colony diameter: 0 mm
ADK-24; cycloheximide 40 μg/ml
  Colony diameter: 0 mm
ADK-24; cycloheximide 80 μg/ml
  Colony diameter: 0 mm
ADK-42; cycloheximide 5 μg/ml
  Colony diameter: 2.4 mm
ADK-42; cycloheximide 10 μg/ml
  Colony diameter: 0 mm
ADK-42; cycloheximide 20 μg/ml
  Colony diameter: 0 mm
ADK-42; cycloheximide 40 μg/ml
  Colony diameter: 0 mm
ADK-42; cycloheximide 80 μg/ml
  Colony diameter: 0 mm
